In data set [1] the target is T1, human neurokinin-3 receptor (Homo sapiens, UniProt P29371).
T1 construct: expressed in transfected cells; host or cells: CHO
T1 sequence (P29371 1-465): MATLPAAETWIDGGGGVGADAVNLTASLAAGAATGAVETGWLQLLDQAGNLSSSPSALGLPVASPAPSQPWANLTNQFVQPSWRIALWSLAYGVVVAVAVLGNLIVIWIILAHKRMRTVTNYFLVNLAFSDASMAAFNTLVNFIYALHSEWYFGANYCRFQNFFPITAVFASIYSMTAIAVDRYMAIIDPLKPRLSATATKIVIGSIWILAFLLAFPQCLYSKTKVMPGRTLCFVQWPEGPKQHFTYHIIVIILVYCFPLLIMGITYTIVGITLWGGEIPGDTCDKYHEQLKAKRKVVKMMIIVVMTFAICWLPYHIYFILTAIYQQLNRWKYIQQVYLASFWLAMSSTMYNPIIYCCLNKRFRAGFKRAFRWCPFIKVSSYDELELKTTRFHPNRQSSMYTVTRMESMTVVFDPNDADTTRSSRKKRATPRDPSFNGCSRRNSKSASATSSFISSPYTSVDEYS
As to the kind of experiment: Binding affinity to human NK-3 receptor expressed in CHO cells (inhibition of [125I]-[Me-Phe7]-NKB or [3H]-Senktide binding). As to conditions: human neurokinin-3 receptor expressed in CHO cell lines; read-out: Binding affinity, Ki (nM) hNK-3-CHO. The method, then: The activity of the compounds of the present invention, as NK3 ligands, is determined by their ability to inhibit the binding of the radiolabelled NK3 ligands, [^125I]-[Me-Phe^7]-NKB or [^3H]-Senktide, to guinea-pig and human NK3 receptors (Renzetti et al, 1991, Neuropeptide, 18, 104-114; Buell et al, 1992, FEBS, 299(1), 90-95; Chung et al, 1994, Biochem. Biophys. Res. Commun., 198(3), 967-972).
The binding assays utilized allow the determination of the concentration of the individual compound required to reduce by 50% the [^125I]-[Me-Phe^7]-NKB and [^3H]-Senktide specific binding to NK3 receptor in equilibrium conditions (IC50).
Binding assays provide for each compound tested a mean IC50 value of 2-5 separate experiments performed in duplicate or triplicate. […] The NK3-antagonist activity of the compounds of the present invention is determined by their ability to inhibit senktide-induced contraction of the guinea-pig ileum (Maggi et al, 1990, Br. J. Pharmacol., 101, 996-1000) and rabbit isolated iris sphincter muscle (Hall et al., 1991, Eur. J. Pharmacol., 199, 9-14) and human NK3 receptors-mediated Ca^++ mobilization (Mochizuki et al, 1994, J. Biol. Chem., 269, 9651-9658). Guinea-pig and rabbit in-vitro functional assays provide for each compound tested a mean KB value of 3-8 separate experiments, where KB is the concentration of the individual compound required to produce a 2-fold rightward shift in the concentration-response curve of senktide. Human receptor functional assay allows the determination of the concentration of the individual compound required to reduce by 50% (IC50 values) the Ca^++ mobilization induced by the agonist NKB. In this assay, the compounds of the present invention behave as antagonists.

The target of data set [2] is T2, human neurokinin-2 receptor (Homo sapiens, UniProt P21452).
T2 construct: expressed in transfected cells; host or cells: CHO
T2 sequence (P21452 1-398): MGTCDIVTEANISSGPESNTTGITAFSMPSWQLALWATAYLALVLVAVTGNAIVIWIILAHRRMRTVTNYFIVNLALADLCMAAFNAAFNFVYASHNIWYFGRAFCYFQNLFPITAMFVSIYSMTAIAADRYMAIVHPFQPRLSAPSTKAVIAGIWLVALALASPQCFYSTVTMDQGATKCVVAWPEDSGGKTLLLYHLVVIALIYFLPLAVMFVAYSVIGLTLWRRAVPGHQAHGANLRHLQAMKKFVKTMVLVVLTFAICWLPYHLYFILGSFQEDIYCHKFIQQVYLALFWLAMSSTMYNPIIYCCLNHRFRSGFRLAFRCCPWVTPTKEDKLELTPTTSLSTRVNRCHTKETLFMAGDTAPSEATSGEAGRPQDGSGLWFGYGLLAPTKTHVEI
As to the kind of experiment: Binding affinity to human NK-2 receptor expressed in CHO cells (inhibition of [125I]-NKA or [3H]-NKA binding). As to conditions: human neurokinin-2 receptor expressed in CHO cell lines; read-out: Binding affinity, Ki (nM) hNK-2-CHO. The method, then:
The activity of the compounds of the present invention, as NK-2 ligands, is determined by their ability to inhibit the binding of the radiolabelled NK-2 ligands, [^125I]-NKA or [^3H]-NKA, to human NK-2 receptors (Aharony et al, 1992, Neuropeptide, 23, 121-130).
The binding assays utilized allow the determination of the concentration of the individual compound required to reduce by 50% the [^125I]-NKA and [^3H]-NKA specific binding to NK2 receptor in equilibrium conditions (IC50).
Binding assays provide for each compound tested a mean IC50 value of 2-5 separate experiments performed in duplicate or triplicate. […] The NK-2-antagonist activity of the compounds of the present invention is determined by their ability to inhibit human NK-2 receptor-mediated Ca^++ mobilization (Mochizuki et al, 1994, J. Biol. Chem., 269, 9651-9658). Human receptor functional assay allows the determination of the concentration of the individual compound required to reduce by 50% (IC50 values) the Ca^++ mobilization induced by the agonist NKA. In this assay, the compounds of the present invention behave as antagonists.

Molecules are shown by their SMILES. “And” between values parts separate entries of the source, which are not always exact repeats. Equal values may be shown once. Where a name gives a salt, the structure may show the parent alone.

The term melting point denotes the temperature, or range, at which the solid turns liquid. `CC[C@H](NC(=O)c1c(CN2CCN(C(C)C)CC2)c(-c2ccccc2)nc2ccccc12)c1ccccc1` (as salt: HCl) [Example 20] gave a melting point of 178 to 182 °C.
Usually Ki stands for the equilibrium dissociation constant of an inhibitor or competing ligand from its target. The compound `CC(C)[C@H](NC(=O)c1c(CN2CCN(C(C)C)CC2)c(-c2ccccc2)nc2ccccc12)c1ccccc1` [Example 43] registered a melting point of 125 to 130 °C. The inhibition constant Ki in data set [1] was found to be 1 nM. Also, the Ki in data set [2] came to 1.2 nM.
As to `CC[C@H](NC(=O)c1c(CCN2CCN(c3ccc(C)cc3)CC2)c(-c2ccccc2)nc2ccccc12)c1ccccc1` [Example 29], the melting point is 93 to 96 °C. In data set [1], the Ki worked out at 2.5 nM. Moreover, in data set [2], the Ki came out at 35.3 nM.
The like results for `CC[C@H](NC(=O)c1c(CCCN2CCC(c3ccccc3)CC2)c(-c2ccccc2)nc2ccccc12)c1ccccc1` [Example 25] were, in that order, 75 to 80 °C, 0.5 nM and 1.5 nM.
On the same counts, the results for `CC[C@H](NC(=O)c1c(CN2CC[C@H](O)C2)c(-c2ccccc2)nc2ccccc12)c1ccccc1` [Example 32, (S)-N-(α-ethylbenzyl)-3-[(3-(S)-hydroxy)pyrrolidin-1-ylmethyl]-2-phenylquinoline-4-carboxamide] are 90 to 95 °C, 3.2 nM and 68.8 nM.
`CC[C@H](NC(=O)c1c(CCN2CCN(c3ccccc3)CC2)c(-c2ccccc2)nc2ccccc12)c1ccccc1` [Example 12]: the results for the Ki in data set [1] and in data set [2] were 1.9 nM and 39 nM, respectively.
As to `CC[C@H](NC(=O)c1c(CCCN2CCN(c3ccc(Cl)cc3)CC2)c(-c2ccccc2)nc2ccccc12)c1ccccc1` [Example 24], the melting point is 100 to 105 °C. In addition, in data set [1], the inhibition constant Ki worked out at 0.9 nM. The Ki in data set [2] worked out at 3.3 nM.
The compound `CC[C@H](NC(=O)c1c(CN2CCN(C)CC2)c(-c2ccccc2)nc2ccccc12)c1ccccc1` (as salt: HCl) [Example 11] displayed a melting point of 195 to 198 °C.
On to `CC[C@H](NC(=O)c1c(CN2CCN(CCc3ccccc3)CC2)c(-c2ccccc2)nc2ccccc12)c1ccccc1` [Example 37], for which the melting point was in the range of 158 to 160 °C. The Ki in data set [1] stood at 0.8 nM. The Ki in data set [2] was 0.9 nM.
Consider `CC[C@H](NC(=O)c1c(CCN2CCN(c3ccc(Cl)cc3)CC2)c(-c2ccccc2)nc2ccccc12)c1ccccc1` [Example 27], for which the melting point is 100 to 110 °C (dec.). The inhibition constant (Ki) in data set [1] came out at 2.8 nM. Also, the Ki in data set [2] turned out to be 53.5 nM.
Regarding `CC[C@H](NC(=O)c1c(CN2CCCCC2)c(-c2ccccc2)nc2ccccc12)c1ccccc1` [Example 8], the Ki is 0.9 nM in data set [1] and 24.1 nM in data set [2].
Regarding `CC[C@H](NC(=O)c1c(CN2CCCCC2)c(-c2ccccc2)nc2ccccc12)c1ccccc1` (as salt: HCl) [Example 8], the melting point was 140 °C (dec.).
Take `CC(C)[C@H](NC(=O)c1c(CN(C)C)c(-c2ccccc2)nc2ccccc12)c1ccccc1` [Example 41]: the melting point is 117 to 120 °C. Further, in data set [1], the Ki worked out at 3.3 nM. Further, in data set [2], the inhibition constant Ki was 56.7 nM.
The compound `CC[C@H](NC(=O)c1c(CN2CCN(CC)CC2)c(-c2ccccc2)nc2ccccc12)c1ccccc1` [Example 36] registered a melting point of 75 to 78 °C. The Ki in data set [1] stood at 1.7 nM. Besides, in data set [2], the Ki stood at 12.7 nM.
The like results for `CC[C@H](NC(=O)c1c(CN(C)CCO)c(-c2ccccc2)nc2ccccc12)c1ccccc1` [Example 6] were, in that order, 167 to 170 °C, 1.2 nM and 65.5 nM.
The like results for `CC[C@H](NC(=O)c1c(CCCN2C(=O)c3ccccc3C2=O)c(-c2ccccc2)nc2ccccc12)c1ccccc1` [Example 21] were, in that order, 182 to 183 °C, 0.9 nM and 6.4 nM.
On the same counts, the results for `CC[C@H](NC(=O)c1c(CN2CC[C@@H](O)C2)c(-c2ccccc2)nc2ccccc12)c1ccccc1` [Example 33] are 100 to 105 °C, 2.9 nM and 64.8 nM.
Take `CC[C@H](NC(=O)c1c(CCCN2CCN(c3ccccc3)CC2)c(-c2ccccc2)nc2ccccc12)c1ccccc1` [Example 13]: the Ki in data set [1] is 0.3 nM; in data set [2] it was 3.8 nM.
As to `CC[C@H](NC(=O)c1c(CN2CCN(C(C)C)CC2)c(-c2ccccc2)nc2ccccc12)c1ccccc1` [Example 20], the results for the Ki in data set [1] and in data set [2] were 1.8 nM and 5.7 nM, respectively.
Take `CC[C@H](NC(=O)c1c(CN2CCC3(CC2)OCCO3)c(-c2ccccc2)nc2ccccc12)c1ccccc1` [Example 9, (S)-N-(α-ethylbenzyl)-3-[(1,4-dioxa-8-azaspiro[4.5]decan-8-yl)methyl]-2-phenylquinoline-4-carboxamide]: the melting point was 170 to 173 °C. Moreover, in data set [1], the Ki was 0.8 nM. In data set [2], the Ki was 18.2 nM.
In turn, `CC[C@H](NC(=O)c1c(CN2CCC(=O)C2)c(-c2ccccc2)nc2ccccc12)c1ccccc1` [Example 34, (S)-N-(α-ethylbenzyl)-3-[(3-oxo)pyrrolidin-1-ylmethyl]-2-phenylquinoline-4-carboxamide] came in with a melting point of 142 to 145 °C. The Ki in data set [1] was determined as 1.5 nM. Also, the Ki in data set [2] was 38 nM.
Take `CC[C@H](NC(=O)c1c(CN2CCC3(CCCC3)CC2)c(-c2ccccc2)nc2ccccc12)c1ccccc1` [Example 31]: the melting point lay in the range of 156 to 160 °C. In addition, the Ki in data set [1] turned out to be 3.9 nM. The Ki in data set [2] turned out to be 143 nM.
For the compound `CC[C@H](NC(=O)c1c(CCN2CCN(C(C)C)CC2)c(-c2ccccc2)nc2ccccc12)c1ccccc1` [Example 39], the Ki in data set [1] turned out to be 0.8 nM; in data set [2], 35.6 nM.
Take `CC[C@H](NC(=O)c1c(CCCN2CCN(c3ccccc3)CC2)c(-c2ccccc2)nc2ccccc12)c1ccccc1` (as salt: HCl) [Example 13]: the melting point was 180 °C (dec.).
As for `CC[C@H](NC(=O)c1c(CN2CCNCC2)c(-c2ccccc2)nc2ccccc12)c1ccccc1` [Example 28, (S)-N-(α-Ethylbenzyl)-3-[(piperazin-1-yl)methyl]-2-phenylquinoline-4-carboxamide], the melting point is 94 to 98 °C and 94.5 to 98 °C.
`CC[C@H](NC(=O)c1c(CN2CCN(C)CC2)c(-c2ccccc2)nc2ccccc12)c1ccccc1` [Example 11]: the inhibition constant Ki in data set [1] turned out to be 4 nM; in data set [2] it was 66.8 nM.
With `CC[C@H](NC(=O)c1c(CCN2CCN(c3ccccc3)CC2)c(-c2ccccc2)nc2ccccc12)c1ccccc1` (as salt: HCl) [Example 12], the melting point is 206 °C (dec.).

These data come from patent publication US20010012846A1, “Quinoline-4-carboxamide derivatives as NK-2 and NK-3 receptor antagonists” (priority 1997, published 2001).
